Laboratory results: PMC12024912, “Druggability Studies of Benzene Sulfonamide Substituted Diarylamide (E3) as a Novel Diuretic” (Biomedicines, 2025)

Legend:
[1] = design: method as in PMID 35458649; conditions: 25a, comparison value; cited from earlier work
UT-B [2] = target: T1, UT-B (Rattus norvegicus, UniProt P97689); experiment: Erythrocyte lysis assay for UT-B inhibition, rat erythrocytes; assay type: cell-based; conditions: erythrocyte lysis model; rat; n = 3, means; read-out: IC50 (μM) Rat
T1 construct: endogenous in cells; host or cells: erythrocytes from male SD rats
T1 sequence (P97689 1-384): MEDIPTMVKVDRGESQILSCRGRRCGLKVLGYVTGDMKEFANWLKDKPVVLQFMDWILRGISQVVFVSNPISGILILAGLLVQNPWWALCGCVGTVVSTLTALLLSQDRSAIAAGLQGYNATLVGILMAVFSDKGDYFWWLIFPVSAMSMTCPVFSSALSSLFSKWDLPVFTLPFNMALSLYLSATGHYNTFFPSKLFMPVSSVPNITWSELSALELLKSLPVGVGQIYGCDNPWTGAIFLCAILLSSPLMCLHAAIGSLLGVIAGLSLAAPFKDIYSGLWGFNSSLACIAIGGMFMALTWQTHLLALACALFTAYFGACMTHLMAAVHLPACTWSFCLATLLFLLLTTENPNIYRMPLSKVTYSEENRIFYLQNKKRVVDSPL
Experimental: (§1) The erythrocyte lysis assay was modified from a method described previously. Erythrocytes obtained from veins were diluted to a hematocrit value of 2% in hyperosmolar PBS containing 1.25 mol/L urea and 5 mmol/L glucose and incubated at r.t. for 2 h. Then, 99 μL erythrocyte suspension from a reservoir was added to each well of a 96-well round-bottom microplate, then 1 μL of the testing compound (500, 125, 31.25, 7.81, 1.95, 0.488, 0.122, 0.031, 0.0076 μmol/L dissolved in DMSO) was added to erythrocyte suspension and shook it up with microoscillator for 1 min. Following 5 min incubation, 20 μL erythrocyte suspension was transferred into 96-well black microplates preloaded with 180 μL isotonic PBS (10 mM, urea-free). Erythrocyte lysis was monitored at 710 nm optical density (OD710) for 6 min, with lysis rates calculated using control values from the same plate as Equation (1):Lysis (%) = 100 × (Aneg − Atest)/(Aneg − Apos)(1) where Atest is the absorbance value from the test well, Aneg is from a negative no-lysis control well, and Apos is from a positive full-lysis control.

UT-B [3] = target: T2, UT-B (Mus musculus, UniProt Q8VHL0); experiment: Erythrocyte lysis assay for UT-B inhibition, mouse erythrocytes; assay type: cell-based; conditions: erythrocyte lysis model; mouse; n = 3, means; read-out: IC50 (μM) Mouse
T2 construct: endogenous in cells; host or cells: erythrocytes from wild-type C57BL/6 mice
T2 sequence (Q8VHL0 1-384): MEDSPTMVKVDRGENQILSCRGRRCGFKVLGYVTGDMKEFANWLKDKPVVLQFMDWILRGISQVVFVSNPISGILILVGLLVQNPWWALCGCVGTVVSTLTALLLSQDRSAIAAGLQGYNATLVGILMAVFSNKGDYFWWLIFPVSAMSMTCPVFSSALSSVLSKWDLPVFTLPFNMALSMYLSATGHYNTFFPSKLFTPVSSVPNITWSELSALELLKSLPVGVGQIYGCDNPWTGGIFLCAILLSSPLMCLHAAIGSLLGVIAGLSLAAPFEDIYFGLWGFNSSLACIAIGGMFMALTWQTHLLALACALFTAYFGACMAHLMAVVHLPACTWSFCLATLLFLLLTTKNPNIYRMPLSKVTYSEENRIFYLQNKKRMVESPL
Experimental: as §1

mice = experiment: Mouse sperm malformation assay; conditions: mice; day 35; E3 2000 mg/kg/day oral for 5 days; CP 50 mg/kg i.p.; vs control
Experimental: Male mice were randomly divided into three groups: control group (0.5% CMC-Na), E3 2000 mg/kg group, and positive group (50 mg/kg cyclophosphamide (CP), administered via intraperitoneal injection). E3 and the control group were administered once daily by intragastric gavage. All mice received treatment for 5 consecutive days. After the initial dosing period, […], the mice were euthanized, and evaluation of sperm parameters was performed as follows:
Caudal epididymides were dissected into fragments in physiological saline and incubated (37 °C, 5% CO2, 10 min). Spermatozoa were isolated through nylon mesh filtration. Semen parameters were quantified using computer-assisted semen analysis (CASA). Eosin-stained smears (20 μL sperm suspension) were analyzed to examine sperm morphology. […] Sperm shape abnormalities, such as banana, headless, without a hook, amorphous, double-tailed, and fat head, were identified and counted. In addition, the testis was reserved for morphological analysis. The spermatogenesis was graded from 1 to 10 using the Johnsen score.

[4] = system: rat hyponatremia model caused by SIADH; experiment: Rat hyponatremia model caused by SIADH (dDAVP); assay type: in vivo
Experimental: The protocol for dDAVP-induced hyponatremia was adapted from a previous study, with tolvaptan chosen as the positive control. Preliminary experiments determined the dose of dDAVP (0.25 ng/h). Under isoflurane anesthesia, a 0.5 μg/mL dDAVP solution was injected subcutaneously using an osmotic minipump (ALZET 2002, Cupertino, CA, USA; 200 μL, low rate of 0.5 μL/h for […]). Rats were housed individually in metabolic cages to collect urine. Before using the pump, they were given 62.5 mL/d 1.0 kcal/mL of liquid food. After pump implantation, the rats received 40 mL of 2.1 kcal/mL of liquid feed daily. The rats were divided into five groups: control group (sham operation), model group (0.5% poloxamer, solvent), 4 mg/kg tolvaptan group, 4 mg/kg E3 group, and 20 mg/kg E3 group. E3 was administered orally every 8 h, while tolvaptan was given intragastrically once daily. At the end of the experiment, the rats were sacrificed.

[5] = SIADH rats, E3 4 or 20 mg/kg every 8 h, tolvaptan 4 mg/kg once daily, vs model rats

| Compound | IC50 (UT-B [2]) [µM] | IC50 (UT-B [3]) [µM] | also measured |
| --- | --- | --- | --- |
| CC(=O)Nc1ccc(NC(=O)c2ccc(C(C)=O)o2)cc1 [Compound 25a, N-(4-acetamidophenyl)-5-acetylfuran-2-carboxamide] | – | – | half-life [1]: 2.86 h; tmax time [1]: 0.25 h |
| CCN1CCN(c2ccc(NC(=O)c3ccc(C(C)=O)o3)cc2)CC1 [Compound E1] | 0.32 | 0.86 | – |
| CC(=O)c1ccc(C(=O)Nc2ccc(C(=O)NCCN(C)C)cc2)o1 [Compound E2] | 0.4 | 2.41 | – |
| CC(=O)c1ccc(C(=O)Nc2ccccc2NS(=O)(=O)c2ccccc2)o1 [Compound E4] | 6.46 | > 10 | – |
| CC(=O)c1ccc(C(=O)Nc2ccc(NS(=O)(=O)c3ccccc3)cc2)o1 [Compound E5] | 0.06 | 0.23 | – |
| CC(=O)c1ccc(C(=O)Nc2ccc(NS(=O)(=O)c3ccccc3)c(O)c2)o1 [Compound E6] | 0.05 | 0.18 | – |
| CC(=O)c1ccc(C(=O)Nc2ccc(S(=O)(=O)Nc3ccccc3)cc2)o1 [Compound E7] | 0.09 | 0.23 | – |
| CC(=O)c1ccc(C(=O)Nc2ccc(S(=O)(=O)Nc3ccc(OCCN4CCOCC4)cc3)cc2)o1 [Compound E8] | 0.77 | 2.55 | – |
| CC(=O)c1ccc(C(=O)Nc2ccc(S(=O)(=O)Nc3ccc(OCCCN4CCOCC4)cc3)cc2)o1 [Compound E9] | 1.75 | 4.07 | – |
| O=P1(N(CCCl)CCCl)NCCCO1 (stereo not drawn) [cyclophosphamide (CP), cyclophosphamide, reference compound] | – | – | testicular and epididymal indices, sperm motility, abnormal morphology, sperm counts, Johnsen score (mice): caused abnormalities |
| Cc1ccccc1C(=O)Nc1ccc(C(=O)N2CCCC(O)c3cc(Cl)ccc32)c(C)c1 (stereo not drawn) [tolvaptan, reference compound] | – | – | hyponatremia in SIADH rats ([4]; E3 4 or 20 mg/kg orally every 8 h, tolvaptan 4 mg/kg once daily, vs model): significantly alleviated; serum osmolality [4, 5]: significantly increased; serum sodium concentration [4, 5]: significantly increased; blood urea levels ([4]; SIADH rats, between experimental groups before and after treatment): no significant difference; H&E staining of kidney and liver ([4]; SIADH rats, except dilatation of collecting ducts): normal tissue structures |
